From publication PMC2014795 (PLoS Pathogens, 2007)

These compounds were tested against T1, HLA-DR1 (DRB1*0101) (Homo sapiens, UniProt P01903+P01911, A100R/D57E/F55L/F60I/F76Y/I96L/L162R/M171V/P40L/Q125E/R42F/V115G/Y59C) (assay: biochemical).
T1 construct: the extracellular portion of HLA-DR1 was produced by expression of isolated subunits in Escherichia coli inclusion bodies; made in house
Assay type: binding

SMILES | IC50 [nM]
CC[C@H](C)[C@H](NC(=O)[C@H](C)NC(=O)[C@H](CC(C)C)NC(=O)[C@H](CO)NC(=O)[C@H](CC(N)=O)NC(=O)[C@H](CC(C)C)NC(=O)[C@H](Cc1ccccc1)NC(=O)[C@H](CCCNC(=N)N)NC(=O)[C@H](CCSC)NC(=O)[C@H](CC(=O)O)NC(=O)[C@H](Cc1ccccc1)NC(=O)[C@H](CCC(N)=O)NC(=O)CNC(=O)[C@@H](NC(=O)[C@@H](N)Cc1ccc(O)cc1)[C@@H](C)CC)C(=O)N[C@@H](Cc1c[nH]cn1)C(=O)N[C@@H](CCC(=O)O)C(=O)N[C@@H](CCCCN)C(=O)N[C@@H](Cc1ccccc1)C(=O)N[C@@H](CC(=O)O)C(=O)N[C@@H](C)C(=O)O [Peptide 314] | 4 ± 1
CC[C@H](C)[C@H](NC(=O)[C@H](CCSC)NC(=O)[C@H](Cc1ccc(O)cc1)NC(=O)[C@H](Cc1ccccc1)NC(=O)[C@H](CCC(N)=O)NC(=O)[C@@H](NC(=O)CNC(=O)[C@@H](NC(=O)CN)[C@@H](C)O)C(C)C)C(=O)N[C@H](C(=O)N[C@H](C(=O)NCC(=O)N[C@H](C(=O)N[C@H](C(=O)N[C@H](C(=O)N[C@@H](CC(C)C)C(=O)N[C@@H](C)C(=O)N[C@@H](C)C(=O)N[C@@H](CC(C)C)C(=O)N[C@@H](Cc1ccccc1)C(=O)N[C@@H](CCSC)C(=O)O)[C@@H](C)CC)[C@@H](C)CC)C(C)C)[C@@H](C)CC)C(C)C [Peptide 312] | 620 ± 110
CC(C)C[C@H](NC(=O)[C@H](Cc1ccc(O)cc1)NC(=O)[C@H](CCCNC(=N)N)NC(=O)CNC(=O)[C@H](CCC(=O)O)NC(=O)[C@H](CCCCN)NC(=O)[C@@H](NC(=O)[C@@H](N)CC(N)=O)[C@@H](C)O)C(=O)N[C@H](C(=O)N[C@@H](CC(C)C)C(=O)N[C@@H](CCCCN)C(=O)N[C@@H](C)C(=O)N[C@H](C(=O)N[C@@H](CCCCN)C(=O)N[C@H](C(=O)N[C@@H](CS)C(=O)N[C@@H](CC(=O)O)C(=O)N[C@H](C(=O)N[C@@H](CCCNC(=N)N)C(=O)N[C@H](C(=O)N[C@H](C(=O)O)C(C)C)[C@@H](C)O)C(C)C)C(C)C)C(C)C)C(C)C [Peptide 301] | 190 ± 16
CC[C@H](C)[C@H](NC(=O)[C@@H](NC(=O)[C@@H]1CCCN1C(=O)[C@H](CCC(=O)O)NC(=O)[C@H](CO)NC(=O)[C@H](CO)NC(=O)[C@H](CCSC)NC(=O)[C@H](Cc1ccc(O)cc1)NC(=O)[C@H](CCCNC(=N)N)NC(=O)[C@H](Cc1ccccc1)NC(=O)[C@@H](NC(=O)[C@@H](NC(=O)[C@H](CC(N)=O)NC(=O)[C@H](C)NC(=O)[C@@H](NC(=O)[C@@H](N)CCC(N)=O)[C@@H](C)O)C(C)C)C(C)C)[C@@H](C)CC)C(=O)N[C@@H](Cc1ccccc1)C(=O)NCC(=O)N[C@@H](CCC(=O)O)C(=O)N[C@@H](CO)C(=O)N[C@@H](CO)C(=O)O [Peptide 302] | 37 ± 10
CC[C@H](C)[C@H](N)C(=O)N1CCC[C@H]1C(=O)N[C@@H](CC(C)C)C(=O)N[C@@H](CO)C(=O)N[C@@H](CCC(=O)O)C(=O)N[C@@H](CCSC)C(=O)N[C@H](C(=O)N[C@H](C(=O)N[C@@H](CCCCN)C(=O)N[C@@H](CC(C)C)C(=O)N[C@H](C(=O)N[C@@H](C)C(=O)N[C@H](C(=O)N[C@@H](CS)C(=O)N[C@@H](CCSC)C(=O)N[C@@H](CCCCN)C(=O)N[C@@H](CS)C(=O)N[C@@H](Cc1ccccc1)C(=O)N[C@@H](CCCCN)C(=O)N[C@@H](CCC(=O)O)C(=O)N[C@@H](C)C(=O)O)C(C)C)[C@@H](C)O)C(C)C)C(C)C [Peptide 305] | 29 ± 10
CC[C@H](C)[C@H](NC(=O)[C@@H](NC(=O)[C@H](CC(N)=O)NC(=O)[C@H](CCCNC(=N)N)NC(=O)[C@H](Cc1c[nH]cn1)NC(=O)[C@H](CCCNC(=N)N)NC(=O)[C@@H](NC(=O)[C@H](Cc1ccc(O)cc1)NC(=O)[C@H](CCC(=O)O)NC(=O)[C@H](C)NC(=O)[C@H](CC(C)C)NC(=O)[C@@H](NC(=O)[C@H](CC(C)C)NC(=O)[C@H](CCCCN)NC(=O)[C@H](Cc1ccccc1)NC(=O)[C@H](CO)NC(=O)[C@H](Cc1ccc(O)cc1)NC(=O)[C@H](CCCCN)NC(=O)[C@H](CC(N)=O)NC(=O)[C@H](Cc1ccc(O)cc1)NC(=O)[C@@H](N)CC(C)C)[C@@H](C)CC)[C@@H](C)CC)[C@@H](C)O)C(=O)O [Peptide 321] | 185 ± 50
